What was measured:
L1210 cells = experiment: In vitro growth inhibition of L1210 leukemic cells (96 hours, Coulter Counter); assay type: cell-based, murine; details: footnote of Table 5; 5760 min
Method: Four ml of cell suspension were added to culture tubes and the appropriate concentration of free PT or L-PT was added (from 0.01 micro g/ml to 10 micro g/ml final concentration). After 96 hours, the cell concentration of control and experimental cultures were calculated with a Coulter Counter (Coulter Electronics, Hialeah, FLA) and the percent inhibition calculated. The following preparations were tested: free PT, DMPG, DMPC:DMPG 7:3, DMPG-PT and DMPC:DMPG 7:3-PT.

L1210 mouse leukemia = experiment: In vivo antitumor activity against L1210 mouse leukemia (L1210-BDF1 mouse model); parameters: species or system BDF1 mice
Method: BDF1 mice were purchased from Charles River (Wilmington, MA). Groups of 6-8 mice weighing 18-22 gm were inoculated ip with 1×10^6 L1210 leukemia cells on day 0. L1210 cells were kept in DBA2 mice were weekly passages between the different experiments. All L-PT preparations were injected ip in volumes of 0.1 to 0.3 ml 24 hours after tumor inoculation. Two different schedules of administration were used: a single injection on day 1 or an injection on days 1, 5 and 9 (multiple). […] Clinical behavior and survival times were monitored until all animals had died. Results were expressed as % T/C (median survival time of treated mice/median survival time of control mice ×100) and number of long-term survivors. Mice living more than 30 days and more than 60 days were considered to be long-term survivors for the single and multiple injection schedule respectively. All L-PT preparations tested for antitumor activity were prepared under sterile conditions on the same day of the experiment.
The antitumor activity against L-1210 murine leukemia of the different L-PT analogs was assessed in an L-1210-BDF, mouse model (tumor inoculation day 0, treatment day 1, ip) as described earlier herein.
These liposome-encapsulated compounds were tested to determine their optimal dose and effectiveness as inhibitors of in vivo tumor growth as described in Example 12.

[1] = test system: liver metastases of M5076 reticulosarcoma; experiment: Treatment of established liver metastases of mouse M5076 reticulosarcoma; assay type: in vivo, mouse (C57BL/6); details: for No. Liver Metastases, mean ± SD: day 30, 7.5 mg/kg days 8, 12, 16, 10^5 cells iv, 7.5 mg/kg
Method: Animals were treated on days 8, 12, and 16 with
Treated animals were sacrificed on day 30,
Animals were treated on days 4, 8, and 12 with
Treated animals were sacrificed on day 45,

[2] = test system: liver metastases of M5076 reticulosarcoma; experiment: Prophylaxis of liver metastases of mouse M5076 reticulosarcoma; assay type: in vivo, mouse (C57BL/6); details: day 21, 10 mg/kg day -1, 10^4 cells iv
Excerpt: NeodecanoatoRacemic-DACH. Animals were inoculated on day 0 with 10^4
M5076 cells intravenously.
Treated animals were sacrificed on day 21, the livers dissected,
placed in Bouin's fixative, and the number of tumor colonies counted.

[3] = MLV, 48 hours in 0.9% NaCl solution; cited from earlier work

Structure (SMILES): N.N.[Cl][Pt][Cl] [CDDP, Cis-platinum, reference compound]
- CDDP ID50 (L1210 cells): 0.1 micro g/ml
- % T/C (L1210 mouse leukemia; 7.5 mg/kg × 3 ip, days 1, 5 and 9): 253%
- % T/C (L1210 mouse leukemia; 10 mg/kg ip day 1, Exp. 1): 167%
- % T/C (L1210 mouse leukemia; 10 mg/kg ip day 1, Exp. 3): 189%
- Number of Survivors on Day 30 (L1210 mouse leukemia; 10 mg/kg ip day 1, Exp. 3): 1/6
- % T/C (L1210 mouse leukemia; 10 mg/kg ip day 1, dissolved in saline (Table 8)): 175%
- % T/C, mean (L1210 mouse leukemia; 10 mg/kg, single ip dose, means of three experiments): 178%
- Long-term survivors (L1210 mouse leukemia; single ip dose, more than 30 days): one or two mice of six
- No. Liver Metastases, mean ± SD ([1]; listed as Cis-platinum): 114 ± 38
- No. Liver Metastases, mean ± SD ([1]; listed as cis-platinum): 114 ±38
- animals with 175 or more liver metastases ([1]; day 45, 7.5 mg/kg days 4, 8, 12): 4/6
- animals that died before day 45 ([1]; groups of 6, days 4, 8, and 12): Two
- No. Liver Metastases, mean ± SD ([2]; listed as Cis-platinum): 256 ± 54
- No. Liver Metastases, mean ± SD ([2]; listed as cis-platinum): 256 ±54
- stability [3]: 75%
